Experimental data published in US20050124685A1, “Polyether brevetoxin derivatives as a treatment for neurotoxic shellfish poisoning and ciguatera fish poisoning” (priority 2003, published 2005).
Where two headings read alike, the source gives them in different places.

Columns and labels:
[1] = test system: isolated rat brain sodium channels (site 5); conditions: Purkerson-Parker, et al., 2000; cited from earlier work
[2] = test system: isolated rat brain sodium channels (site 5); conditions: read-out: Ki, competitive displacement assay, synaptosomal binding
[3] = test system: sodium channels; conditions: steady state; Purkerson-Parker, et al., 2000; cited from earlier work
[4] = test system: sodium channels; experiment: Patch clamp single sodium channel currents in membrane patches; assay type: cell-based; conditions: 100 nM, n=6, FIG. 2C, 2D
Description: FIG. 2A-D illustrates single sodium channel currents in patch clamp sodium channels during successive command depolarizations to −10 mV from a command potential of −100 mV in the same membrane patch before (2A) and after (2B) exposure to β-naphthoyl-PbTx-3 (100 nM, n=6). […] The average area under the β-naphthoyl-PbTx-3 curve was 71.8±18.3% less than that of PbTx-3.
FIG. 3A-E illustrates the steady state currents in four different membrane patches at a steady state command voltage of −50 mV. 3A are control traces preceeding the test with PbTx-3, and are representative of control recordings observed in all four patches during 7.2 s of continuous observation. 3B are traces for membrane patches exposed to PbTx-3 (100 nM, […]). 3C are traces for membrane patches exposed to benzoyl-PbTx-3 (100 nM, n=6). 3D are traces for membrane patches exposed to α-naphthoyl-PbTx-3 (100 nM, n=6). 3E are traces for membrane patches exposed to β-naphthoyl-PbTx-3 (100 nM, n=6). The experimental recordings are representative of 7.2 s of continuous observation in PbTx-3 or the particular derivative.

[5] = isolated rat brain sodium channels, FIG. 1

β-Naphthoyl-PbTx-3
displacement of native toxin from binding site [1]: displaces the native toxin from its binding site | Ki [2, 5]: 1.06 nM | opening of sodium channels [3]: does not elicit opening of sodium channels in steady state | average area under the ensemble average curve, less than that of PbTx-3 ([4]; depolarizations to −10 mV from command potential of −100 mV): 71.8±18.3% | peak sodium current (ensemble averages) ([4]; depolarizations to −10 mV from −100 mV): reduction in peak sodium current

Benzoyl-PbTx-3
Ki [2, 5]: 0.2 nM

α-Naphthoyl-PbTx-3
Ki [2, 5]: 4.68 nM

C=C(CO)CC1CC(O)C2(C)OC3CC4OC5CC6(C)OC7(C)CCC8OC9CC%10(C)OC%11C(C)=CC(=O)OC%11CC%10OC9CC(C)C8OC7CC6OC5(C)CC=CC4OC3CC2O1 (centres unmarked) [PbTx-3, reference compound]
Ki [2]: 3 nM
